# “Also recorded” adds a separate entry of the source.
# Tested on: E. coli (EC18)
# Assay: Immunofluorescence and viability staining of E. coli
# Format: cell-based, Escherichia coli
# Details: 15 µM, 30 min at 37 °C, PBS containing 0.6 % glutaraldehyde
# Description: Environmental E. Coli (EC18) were cultivated and re-suspended in PBS as described above. A dead bacterial suspension was also prepared as previously described. Dead or viable E. coli (EC18) (100 µl of suspension at 1.10^9 bacteria/ml) were incubated with rabbit anti-EC18 polyclonal antibodies (anti-EC18 pAb) (dilution 1/20) for 1 h at room temperature. This anti-EC 18 pAb was obtained from immunized rabbit with inactivated EC18 (Eurogentec). Bacteria were washed in PBS by centrifugation at 10000 rpm for 3 min at room temperature. Then, they were resuspended in 200 µl of PBS solution containing 0.6 % of glutaraldehyde with 15 µM of 5-POGDA and incubated for 30 min at 37 °C in the absence of light. Following several washes with PBS as described above, dead or viable E. coli (EC18) were re-suspended in 200 µl of PBS and incubated for 1 h at room temperature in the absence of light with AlexaFluor 568 labeled anti-rabbit immunoglobulin (dilution 1/1000) (Molecularprobes, A11036). Bacteria were washed twice and re-suspended in 100 µl of PBS. They were imaged with a Leica DM5500 microscope equipped with FITC and Cy3 filters. Images were collected with a 100x objective. The same experiment was repeated three times (n = 3).
compound,measurement,value
"CCCNC(=O)c1ccc2c(c1)C(=O)OC21c2cc(F)c(OC(C)=O)cc2Oc2cc(OC(C)=O)c(F)cc21 [Example 5-POGDA, 2',7'-difluoro-3-oxo-5-(propylcarbamoyl)-3H-spiro[isobenzofuran-1,9'-xanthene]-3',6'-diyl diacetate]",green fluorescence of viable and dead E. coli (EC18) coated with antibodies,bright green fluorescence; also recorded: viable cells have a green fluorescence and dead cells have no green fluorescence
